Measurements published in patent US20120020915A1, “Compounds and Methods for Treating Cancer and Diseases of the Central Nervous System” (QUEENS UNIVERSITY AT KINGSTON, priority 2007, published 2012).

Legend:
[1] = tested on: HCT-116 colorectal carcinoma; test: Colorectal carcinoma model HCT-116 in SCID mice, tumor growth delay; type: in vivo, Mouse (Mus musculus); male SCID; conditions: dosage of 60 mg/kg
From the text: (§1) Control groups received the vehicle alone.

[2] = tested on: CD31-positive vessels in SKMEL-V+ tumors; test: CD31 immunohistochemistry / microvessel density of SKMEL-V+ tumors; type: in vivo, Mouse (Mus musculus), male SCID; conditions: QC-56 particularly at 60 mg/kg
Experimental: Cell cultures were maintained in 5% CO2/95% air at 37° C. SKMEL-V (human melanoma cells). SKMEL-V cells were derived from SKMEL-24 cells (ATCC) by overexpression of mouse VEGF. […] Tumors were either snap frozen in liquid nitrogen or fixed in 10% buffered formalin and embedded in paraffin. […] BD PharMingen, San Diego, Calif.). […] Sections were rehydrated in PBS and then blocked with 5% normal goat serum for 1 h. The sections were then incubated overnight at 4° C. with CD31 antibody diluted 1:25 in 3% BSA-PBS. […] Paraffin-embedded material was used for Harris' hematoxylin. Microvessel density was quantified using a method described by Weidner et al ([…], and Folkman […]. Med, 1991; 324:1-8). Briefly, randomly vascularized areas were selected (hot spots) under 40× field and 100× fields. Then a 400× field was used to count microvessels in each of these areas. Single endothelial cells or clusters of endothelial cells with or without lumen were considered to be individual vessels. […] All slides were examined blindly with no prior knowledge of the treatment status.

[3] = tested on: cultured rat astroglia; conditions: cited from earlier work; for mitochondrial iron accumulation in astroglia transfected with human ho-1 gene: transient transfection
[4] = type: in vivo; conditions: QC-56 60 mg/kg ip, 4 cycles; chemotherapy drugs ip
From the text: as §1

[5] = tested on: vascular smooth muscle cells (VSMC); conditions: exposure of VSMC; cited from earlier work
[6] = tested on: B16-BL6 cells (mouse melanoma); test: Metastatic B16-BL6 melanoma model, lung surface metastases; type: in vivo; conditions: vehicle control: 101
Experimental: B16-BL6 cells (mouse melanoma). B16-BL6 metastatic variant was derived from B16-F10. This cell variant was obtained from Dr. Linda D. Williams, Dept. of Cancer Biology, MD Anderson Cancer Center, Texas, USA. […] Cells were maintained at 37° C. in a humidified atmosphere (5% CO2, 95% air).
as §1

Q: For O=c1[nH]cc(F)c(=O)[nH]1 [5-FU, Fluorouracil, reference compound], which mortality [1] is on record?
A: The mortality was “induced mortality”.

Q: Which “vessel count / tumor vascularization (CD31)” value [2] does the source give for CN(C)/N=N/c1[nH]cnc1C(N)=O [Dacarbazine, reference compound] here?
A: The value was “minor effect”.

Q: With CCC1=C(C)c2cc3[n-]c(cc4[n-]c(cc5nc(cc1n2)C(C)=C5CC)c(C)c4CCC(=O)O)c(CCC(=O)O)c3C.[Cl-].[Cl-].[Sn+4] [SnMP] as the molecule, how does the “mitochondrial iron accumulation in astroglia transfected with human ho-1 gene” value [3] read?
A: The value was “abolished the pathological accumulation of mitochondrial ^55Fe”.

Q: What does the source list for CC(=O)O[C@H]1C(=O)[C@@]2(C)[C@H]([C@H](OC(=O)c3ccccc3)[C@]3(O)C[C@H](OC(=O)[C@H](O)[C@@H](NC(=O)c4ccccc4)c4ccccc4)C(C)=C1C3(C)C)[C@]1(OC(C)=O)CO[C@@H]1C[C@@H]2O [Taxol™, paclitaxel, reference compound]?
A: toxicity in the combination study [4]: induced some loss of body weights/mortality; HO-1 expression and activity [5]: dose and time dependent increase in HO-1 expression and activity

Q: With N.N.[Cl][Pt][Cl] [cisplatin, cis-diaminedichloroplatinum(II), reference compound] as the molecule, how does the “macroscopic nodules in the lungs (average)” value [6] read?
A: The value was 60 nodules.

Q: What does the source list for C[C@@H]1C[C@H]2[C@@H]3CCC4=CC(=O)C=C[C@]4(C)[C@@]3(F)[C@@H](O)C[C@]2(C)[C@@]1(O)C(=O)CO [dexamethasone]?
A: mitochondrial iron sequestration in astrocytes exposed to β-amyloid, TNFα or IL-1β ([3]; dexamethasone 50 μg/mL): significantly attenuated mitochondrial iron sequestration; mitochondrial iron accumulation in astroglia transfected with human ho-1 gene [3]: abolished the pathological accumulation of mitochondrial ^55Fe
